Experimental data reported in patent publication US12544375B2, “Small molecule therapeutic for parkinson's disease paired with a biomarker of therapeutic activity” (The Board of Trustees of the Leland Stanford Junior …, priority 2019, dated 2026).

Target: T1, DMiro (Drosophila melanogaster, UniProt Q8IMX7)
T1 construct: PD flies were fed with 2.5 μM Miro1 Reducer for the indicated time periods and lysed for blotting DMiro; from tissue; host or cells: whole flies (mutant LRRK2, PINK1 null) or heads (mutant SNCA flies)
T1 sequence (Q8IMX7 1-652): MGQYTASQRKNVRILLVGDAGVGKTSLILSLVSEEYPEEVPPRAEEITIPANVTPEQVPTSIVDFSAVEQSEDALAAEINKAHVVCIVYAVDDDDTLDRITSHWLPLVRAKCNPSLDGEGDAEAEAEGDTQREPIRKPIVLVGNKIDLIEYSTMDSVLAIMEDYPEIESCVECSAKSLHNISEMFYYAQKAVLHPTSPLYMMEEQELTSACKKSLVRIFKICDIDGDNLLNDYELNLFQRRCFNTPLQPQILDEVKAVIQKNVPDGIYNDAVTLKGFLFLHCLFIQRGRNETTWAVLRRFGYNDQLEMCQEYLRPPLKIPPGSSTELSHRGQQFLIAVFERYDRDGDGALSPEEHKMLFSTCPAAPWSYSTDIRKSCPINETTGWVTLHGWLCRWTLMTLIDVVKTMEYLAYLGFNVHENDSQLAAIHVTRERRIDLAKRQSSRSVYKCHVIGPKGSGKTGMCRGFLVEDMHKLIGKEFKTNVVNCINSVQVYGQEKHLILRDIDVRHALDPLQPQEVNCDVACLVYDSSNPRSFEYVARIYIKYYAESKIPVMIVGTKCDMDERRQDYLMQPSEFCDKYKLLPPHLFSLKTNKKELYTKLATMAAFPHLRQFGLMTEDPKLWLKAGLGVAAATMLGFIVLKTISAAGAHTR
Test: DMiro level in PD flies fed compound, Western blot
Type: in vivo, fly
Details: 2.5 μM, mutant LRRK2, PINK1 and SNCA flies
Method: FIG. 8. Related to FIG. 2-4. Miro1 Reducer in Human Cell and Fly Models. (A) Fibroblasts from Healthy-1 and PD-2 were treated, lysed, and blotted as indicated. Band intensities are normalized to those of GAPDH from the same blots and compared to “Healthy-1, no treatment”. n=4 independent experiments. (B) Fibroblasts from PD-2 were treated and immunostained as indicated. The intensity was quantified for each cell across 264-320 cells from 3 independent experiments, compared to “no treatment”. (C) Fibroblasts were treated, immunoprecipitated (IPed) with anti-Miro1, and blotted as indicated. Similar results were observed twice. (D) Similar as in (C), fibroblasts were treated as indicated, and IPed with anti-Miro1. The GTPase activity of the IPed Miro1 protein was measured as described in Method. […] The MitoSox intensity was quantified for each cell across 106-161 cells from 3 coverslips. […] The TMRM intensity was measured for each cell across 48-60 cells from 3 independent experiments, and expressed as a fraction of the mean of “Healthy-1, no treatment”. […] The movement (the intensity of non-yellow) was quantified for each cell as described in (Tsai et al., 2014) across 22-31 cells from 3 transfections. […] (1) Left: The percentage of TH-positive iPSC-derived neurons out of total cells (Dapi-positive) is calculated after immunocytochemistry under 20× as described in FIG. 3. […]

## O=C(Nc1ccc(Nc2cc(-n3ccnc3)ncn2)cc1)Nc1cccc(F)c1 [Miro1 Reducer]
  DMiro band intensity in PD flies: trend of DMiro reduction
